The NIST ThermoML archive (doi:10.1021/acs.jced.5b00242)

Columns and labels:
[1] = refractive index (Na D-line) (dimensionless); xn = mol fraction of the nth substance listed; conditions: 101 kPa, Liquid, Standard Abbe refractometry
[2] = xn = mol fraction of the nth substance listed; conditions: 101 kPa, Liquid; for viscosity: Stabinger Viscometer; for mass density: Vibrating tube method

CCn1cc[n+](C)c1.C[C@H](N)C(=O)[O-] [1-ethyl-3-methylimidazolium L-alaninate] + CCn1cc[n+](C)c1.N#C[C-](C#N)C#N
Conditions	mass density, [2] [kg/m3]	refractive index, [1]	viscosity, [2] [mPa·s]
293.15 K, x2 = 0	1126.3	1.51366	382.06
293.15 K, x2 = 0.2506	1113.7	1.51476	146.57
293.15 K, x2 = 0.5	1102.2	1.51409	78.6
293.15 K, x2 = 0.7499	1092.9	1.51367	31.55
298.15 K, x2 = 0	1123	1.51223	263.98
298.15 K, x2 = 0.2506	1110.4	1.5133	107.2
298.15 K, x2 = 0.5	1098.9	1.51258	60.26
298.15 K, x2 = 0.7499	1089.3	1.5121	25.68
303.15 K, x2 = 0	1119.8	1.51081	187.79
303.15 K, x2 = 0.2506	1107.1	1.51184	80.47
303.15 K, x2 = 0.5	1095.6	1.51107	46.89
303.15 K, x2 = 0.7499	1085.9	1.51053	21.18
308.15 K, x2 = 0	1116.6	1.50937	137.47
308.15 K, x2 = 0.2506	1104	1.51038	61.83
308.15 K, x2 = 0.5	1092.3	1.5095	37.29
308.15 K, x2 = 0.7499	1082.6	1.50893	17.74
313.15 K, x2 = 0	1113.5	1.50793	103.54
313.15 K, x2 = 0.2506	1100.8	1.50888	49.16
313.15 K, x2 = 0.5	1089.1	1.50796	30.22
313.15 K, x2 = 0.7499	1079.2	1.50731	14.83
318.15 K, x2 = 0	1110.5	1.50651	79.34
318.15 K, x2 = 0.2506	1097.8	1.50736	38.96
318.15 K, x2 = 0.5	1085.9	1.50643	24.9
318.15 K, x2 = 0.7499	1075.9	1.50568	12.94
323.15 K, x2 = 0	1107.5	1.50505	62.21
323.15 K, x2 = 0.2506	1094.6	1.5059	31.75
323.15 K, x2 = 0.5	1082.7	1.50488	20.83
323.15 K, x2 = 0.7499	1072.7	1.50401	11.23
328.15 K, x2 = 0	1104.4	1.50358	49.69
328.15 K, x2 = 0.2506	1091.5	1.50436	26.27
328.15 K, x2 = 0.5	1079.5	1.50338	17.64
328.15 K, x2 = 0.7499	1069.4	1.50244	9.84
333.15 K, x2 = 0	1101.3	1.50217	40.5
333.15 K, x2 = 0.2506	1088.4	1.50293	22.29
333.15 K, x2 = 0.5	1076.3	1.50191	15.08
333.15 K, x2 = 0.7499	1066.1	1.50085	8.51
338.15 K, x2 = 0	1098.3	1.50074	33.22
338.15 K, x2 = 0.2506	1085.3	1.50148	18.7
338.15 K, x2 = 0.5	1073.1	1.50039	13.09
338.15 K, x2 = 0.7499	1062.9	1.49926	7.74
343.15 K, x2 = 0	1095.2	1.49932	27.72
343.15 K, x2 = 0.2506	1082.2	1.49997	16.04
343.15 K, x2 = 0.5	1069.9	1.49888	11.45
343.15 K, x2 = 0.7499	1059.6	1.49771	6.93
348.15 K, x2 = 0	1092.1	1.49795	23.38
348.15 K, x2 = 0.2506	1079.1	1.49851	13.89
348.15 K, x2 = 0.5	1066.6	1.49739	10.1
348.15 K, x2 = 0.7499	1056.3	1.49613	6.26
353.15 K, x2 = 0	1088.9	1.49656	20.03
353.15 K, x2 = 0.2506	1075.9	1.49704	12.28
353.15 K, x2 = 0.5	1063.1	1.49589	8.93
353.15 K, x2 = 0.7499	1052.9	1.49456	5.45
